{"source": "patent US20050129610A1", "about": "“Imaging agents and methods of imaging alpha7-nicotinic cholinergic receptor” (Johns Hopkins University, priority 2003, published 2005)", "key": {"rat α7 nAChR": {"biological_target": "rat α7 nAChR (Rattus norvegicus, UniProt Q05941)", "sequence (Q05941 23-502)": "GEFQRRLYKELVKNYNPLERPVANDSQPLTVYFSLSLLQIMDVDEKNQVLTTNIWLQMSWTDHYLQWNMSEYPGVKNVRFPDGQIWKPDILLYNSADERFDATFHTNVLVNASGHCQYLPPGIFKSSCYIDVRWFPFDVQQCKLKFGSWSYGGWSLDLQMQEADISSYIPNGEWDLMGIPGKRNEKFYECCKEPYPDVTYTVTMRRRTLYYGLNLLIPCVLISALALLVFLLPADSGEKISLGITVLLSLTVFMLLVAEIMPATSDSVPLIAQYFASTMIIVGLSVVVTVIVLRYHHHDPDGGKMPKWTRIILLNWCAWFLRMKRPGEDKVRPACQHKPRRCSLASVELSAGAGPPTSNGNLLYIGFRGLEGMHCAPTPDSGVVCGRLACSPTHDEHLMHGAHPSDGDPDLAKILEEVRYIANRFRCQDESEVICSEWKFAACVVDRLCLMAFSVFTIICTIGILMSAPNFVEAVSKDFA", "experiment": "Receptor binding assay, rat α7 nAChR", "protocol": "(§1) Receptor Binding Assays. The affinities of 1-4 for the rat α4β2 and α7 nAChRs were determined as described previously (Mullen, et al., J. Med. Chem.; 2000;43(22):4045-50). Affinities for the rat 5-HT3 receptor were also determined as described previously (Macor, et al., Bioorg. Med. Chem. Lett. 2001;11(3):319-21). All Ki determinations were done using 5-7 concentrations. […] There was a wide margin in selectivity compared to the α4β2 receptor subtype. Also included are the relative binding affinities to the 5-HT3 receptor, which has high sequence homology to the α7-nAChR."}, "[1]": {"experiment": "Rodent in vivo biodistribution (brain kinetics)", "parameters": "species or system male CD-1 mice", "conditions": "for Brain distribution, F. CTX / Brain distribution, S. COLL / Brain distribution, CB / Brain distribution, CTX / Brain distribution, HIPP / Brain distribution, STR / Brain distribution, THAL: mice; for Brain distribution, CB: cerebellum; for Brain distribution, CTX: cortex; for Brain distribution, HIPP: hippocampus; for Brain distribution, STR: striatum; for Brain distribution, THAL: thalamus", "protocol": "(§2) Rodent In Vivo Biodistribution Studies of 1-4. Male CD-1 mice weighing between 20 and 25 g received an injection of 3.7 MBq (100 μCi) for 1 and 2 and 0.67 MBq ([…]) for 3 and 4 through the tail vein. The corresponding amounts administered were 0.2-0.8 μg/kg for 1 and 2 and 0.01-0.02 μg/kg for 3 and 4. For kinetic studies of 1-4, the mice were killed by cervical dislocation at 5, 15, 30 and 60 min after intravenous injection of radiotracer in 200 μL saline vehicle. The brains were removed and placed on ice, and the cerebellum, olfactory bulb, hypothalamus, hippocampus, striatum, cortex, brain stem and thalamus were harvested. A 45 min time point was obtained for 2 and one at 120 min for 3 and 4. The tissue samples were weighed and their radioactivity determined in an automated □ counter (1282 Compugamma CS; Pharmacia/LKB Nuclear Inc., Gaithersburg, Md.). The radioactivity concentration in aliquots of the injected tracer were determined along with the samples and served as standards for the calculation of percentage injected dose per gram of tissue (% ID/g). To assess binding specificity, subgroups of mice were treated with 10 mg/kg nicotine (for D or increasing doses of unlabeled 4 (0.01-10 mg/kg) 5 min prior to injection of radiotracer. Mice were killed at 30 and 60 min after blockade for 3 and 4, respectively."}, "α7-nAChR": {"biological_target": "T1, α7-nAChR (Mus musculus, UniProt P49582)", "T1 construct": "Male CD-1 mice weighing between 20 and 25 g received an injection; from tissue; host or cells: brain of living male CD-1 mice (hippocampus, cortex and other regions)", "T1 sequence (P49582 23-502)": "as the sequence (Q05941 23-502) above, with A402T counted along it", "experiment": "In vivo binding specificity (receptor blockade) study", "parameters": "species or system male CD-1 mice", "conditions": "LSA determinations at 30 and 60 min, mice", "protocol": "as §2"}, "rat α4β2 nAChR": {"biological_target": "rat α4β2 nAChR (Rattus norvegicus, UniProt P09483+P12390)", "sequence (P09483 31-630)": "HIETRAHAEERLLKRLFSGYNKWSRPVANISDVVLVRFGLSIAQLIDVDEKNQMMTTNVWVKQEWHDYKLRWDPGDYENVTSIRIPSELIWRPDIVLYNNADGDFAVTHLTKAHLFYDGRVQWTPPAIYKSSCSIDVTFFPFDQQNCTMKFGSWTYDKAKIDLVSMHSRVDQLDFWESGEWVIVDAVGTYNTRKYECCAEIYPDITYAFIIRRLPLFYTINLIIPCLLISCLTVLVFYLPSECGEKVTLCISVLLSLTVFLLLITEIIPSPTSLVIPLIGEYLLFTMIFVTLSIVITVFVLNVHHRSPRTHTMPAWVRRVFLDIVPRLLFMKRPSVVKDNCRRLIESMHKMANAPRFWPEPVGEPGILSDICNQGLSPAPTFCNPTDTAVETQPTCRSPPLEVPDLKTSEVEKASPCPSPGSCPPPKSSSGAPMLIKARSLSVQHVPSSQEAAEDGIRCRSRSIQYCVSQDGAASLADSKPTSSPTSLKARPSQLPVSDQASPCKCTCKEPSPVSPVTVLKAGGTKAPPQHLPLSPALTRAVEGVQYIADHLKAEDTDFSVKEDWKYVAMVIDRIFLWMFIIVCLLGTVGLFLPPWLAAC", "sequence (P12390 25-500)": "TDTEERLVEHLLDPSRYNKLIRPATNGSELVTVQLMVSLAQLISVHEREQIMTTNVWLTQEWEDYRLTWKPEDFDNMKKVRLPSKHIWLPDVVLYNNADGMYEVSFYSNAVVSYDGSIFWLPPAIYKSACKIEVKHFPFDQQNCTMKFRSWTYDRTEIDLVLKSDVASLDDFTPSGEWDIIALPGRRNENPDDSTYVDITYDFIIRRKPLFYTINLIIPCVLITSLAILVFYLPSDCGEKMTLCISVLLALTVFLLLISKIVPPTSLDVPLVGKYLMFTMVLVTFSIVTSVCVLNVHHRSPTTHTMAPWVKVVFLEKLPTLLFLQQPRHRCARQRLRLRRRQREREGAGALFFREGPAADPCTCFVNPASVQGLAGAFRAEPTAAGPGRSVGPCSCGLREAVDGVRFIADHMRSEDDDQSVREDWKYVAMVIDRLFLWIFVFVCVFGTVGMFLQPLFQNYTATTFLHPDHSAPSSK", "experiment": "Receptor binding assay, rat α4β2 nAChR (selectivity)", "conditions": "binding selectivity vs rat α4β2 nAChR", "protocol": "as §1"}, "rat 5-HT3 receptor": {"biological_target": "T2, rat 5-HT3 receptor (Rattus norvegicus, UniProt P35563)", "T2 sequence (P35563 24-483)": "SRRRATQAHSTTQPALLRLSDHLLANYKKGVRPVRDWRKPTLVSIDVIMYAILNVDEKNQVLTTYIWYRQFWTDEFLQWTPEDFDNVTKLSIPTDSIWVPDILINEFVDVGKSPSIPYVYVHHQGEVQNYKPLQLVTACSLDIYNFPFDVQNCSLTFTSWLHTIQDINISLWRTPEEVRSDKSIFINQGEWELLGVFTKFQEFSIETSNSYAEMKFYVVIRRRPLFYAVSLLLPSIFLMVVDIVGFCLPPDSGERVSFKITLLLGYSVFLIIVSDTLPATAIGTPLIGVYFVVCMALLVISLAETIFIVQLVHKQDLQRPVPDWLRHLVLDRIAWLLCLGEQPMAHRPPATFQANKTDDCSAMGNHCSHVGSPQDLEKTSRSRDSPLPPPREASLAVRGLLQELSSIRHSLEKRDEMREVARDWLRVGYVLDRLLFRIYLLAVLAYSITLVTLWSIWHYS", "experiment": "Receptor binding assay, rat 5-HT3 receptor (selectivity)", "conditions": "binding selectivity vs rat 5-HT3 receptor", "protocol": "as §1"}, "[2]": {"conditions": "30 min, low specific activity (LSA)"}, "[3]": {"conditions": "60 min, low specific activity (LSA)"}}}
{"compound": "[11CH3]N(Cc1ccccc1)c1cnc2c(c1)CC1(CN3CCC1CC3)O2", "note": "(stereo not drawn) [Compound 1, (2′R)-N-[^11C]methyl-N-(phenylmethyl)-spiro[1-azabicyclo[2.2.2]octane-3,2′(3′H)-furo[2,3-b]pyridin]-5′-amine]", "values": [{"measurement": "Ki", "setting": "rat α7 nAChR", "result": 0.54, "unit": "nM"}, {"measurement": "Brain distribution, F. CTX", "setting": "[1]; 5 min post i.v. injection", "result": "1.77 ± 0.36", "unit": "% ID/g"}, {"measurement": "Brain distribution, F. CTX", "setting": "[1]; 15 min post i.v. injection", "result": "1.38 ± 0.25", "unit": "% ID/g"}, {"measurement": "Brain distribution, F. CTX", "setting": "[1]; [2]", "result": "1.28 ± 0.07", "unit": "% ID/g"}, {"measurement": "Brain distribution, F. CTX", "setting": "[1]; 30 min post i.v. injection", "result": "0.95 ± 0.06", "unit": "% ID/g"}, {"measurement": "Brain distribution, F. CTX", "setting": "[1]; [3]", "result": "1.07 ± 0.15", "unit": "% ID/g"}, {"measurement": "Brain distribution, F. CTX", "setting": "[1]; 60 min post i.v. injection", "result": "0.79 ± 0.11", "unit": "% ID/g"}, {"measurement": "Brain distribution, S. COLL", "setting": "[1]; 5 min post i.v. injection", "result": "1.49 ± 0.50", "unit": "% ID/g"}, {"measurement": "Brain distribution, S. COLL", "setting": "[1]; 15 min post i.v. injection", "result": "1.42 ± 0.26", "unit": "% ID/g"}, {"measurement": "Brain distribution, S. COLL", "setting": "[1]; [2]", "result": "1.04 ± 0.15", "unit": "% ID/g"}, {"measurement": "Brain distribution, S. COLL", "setting": "[1]; 30 min post i.v. injection", "result": "1.09 ± 0.14", "unit": "% ID/g"}, {"measurement": "Brain distribution, S. COLL", "setting": "[1]; [3]", "result": "0.88 ± 0.16", "unit": "% ID/g"}, {"measurement": "Brain distribution, CB", "setting": "[1]; 5 min post i.v. injection", "result": "1.66 ± 0.50", "unit": "% ID/g"}, {"measurement": "Brain distribution, CB", "setting": "[1]; 15 min post i.v. injection", "result": "1.38 ± 0.32", "unit": "% ID/g"}, {"measurement": "Brain distribution, CB", "setting": "[1]; [2]", "result": "1.00 ± 0.06", "unit": "% ID/g"}, {"measurement": "Brain distribution, CB", "setting": "[1]; 30 min post i.v. injection", "result": "1.16 ± 0.19", "unit": "% ID/g"}, {"measurement": "Brain distribution, CB", "setting": "[1]; [3]", "result": "0.65 ± 0.07", "unit": "% ID/g"}, {"measurement": "Brain distribution, CB", "setting": "[1]; 60 min post i.v. injection", "result": "0.84 ± 0.05", "unit": "% ID/g"}, {"measurement": "Brain distribution, CTX", "setting": "[1]; 5 min post i.v. injection", "result": "1.46 ± 0.48", "unit": "% ID/g"}, {"measurement": "Brain distribution, CTX", "setting": "[1]; 15 min post i.v. injection", "result": "1.28 ± 0.21", "unit": "% ID/g"}, {"measurement": "Brain distribution, CTX", "setting": "[1]; [2]", "result": "1.16 ± 0.13", "unit": "% ID/g"}, {"measurement": "Brain distribution, CTX", "setting": "[1]; 30 min post i.v. injection", "result": "0.89 ± 0.11", "unit": "% ID/g"}, {"measurement": "Brain distribution, CTX", "setting": "[1]; [3]", "result": "0.86 ± 0.15", "unit": "% ID/g"}, {"measurement": "Brain distribution, CTX", "setting": "[1]; 60 min post i.v. injection", "result": "0.69 ± 0.10", "unit": "% ID/g"}, {"measurement": "Brain distribution, HIPP", "setting": "[1]; 5 min post i.v. injection", "result": "1.24 ± 0.33", "unit": "% ID/g"}, {"measurement": "Brain distribution, HIPP", "setting": "[1]; 15 min post i.v. injection", "result": "1.12 ± 0.15", "unit": "% ID/g"}, {"measurement": "Brain distribution, HIPP", "setting": "[1]; [2]", "result": "1.27 ± 0.09", "unit": "% ID/g"}, {"measurement": "Brain distribution, HIPP", "setting": "[1]; 30 min post i.v. injection", "result": "0.91 ± 0.05", "unit": "% ID/g"}, {"measurement": "Brain distribution, HIPP", "setting": "[1]; [3]", "result": "0.98 ± 0.16", "unit": "% ID/g"}, {"measurement": "Brain distribution, HIPP", "setting": "[1]; 60 min post i.v. injection", "result": "0.81 ± 0.10", "unit": "% ID/g"}, {"measurement": "Regional selectivity of brain uptake", "setting": "[1]; mouse brain, all time points, in words", "result": "No α7-nAChR-selective, regional brain uptake"}, {"measurement": "Uptake within the brain (in words)", "setting": "[1]; mouse brain, i.v. radiotracer", "result": "limited but measurable uptake within the brain"}, {"measurement": "Brain distribution, STR", "setting": "[1]; 5 min post i.v. injection", "result": "1.47 ± 0.38", "unit": "% ID/g"}, {"measurement": "Brain distribution, STR", "setting": "[1]; 15 min post i.v. injection", "result": "1.20 ± 0.15", "unit": "% ID/g"}, {"measurement": "Brain distribution, STR", "setting": "[1]; [2]", "result": "1.20 ± 0.05", "unit": "% ID/g"}, {"measurement": "Brain distribution, STR", "setting": "[1]; 30 min post i.v. injection", "result": "0.93 ± 0.10", "unit": "% ID/g"}, {"measurement": "Brain distribution, STR", "setting": "[1]; [3]", "result": "0.75 ± 0.22", "unit": "% ID/g"}, {"measurement": "Brain distribution, STR", "setting": "[1]; 60 min post i.v. injection", "result": "0.69 ± 0.06", "unit": "% ID/g"}, {"measurement": "Brain distribution, THAL", "setting": "[1]; 5 min post i.v. injection", "result": "1.61 ± 0.61", "unit": "% ID/g"}, {"measurement": "Brain distribution, THAL", "setting": "[1]; 15 min post i.v. injection", "result": "1.35 ± 0.28", "unit": "% ID/g"}, {"measurement": "Brain distribution, THAL", "setting": "[1]; [2]", "result": "1.23 ± 0.12", "unit": "% ID/g"}, {"measurement": "Brain distribution, THAL", "setting": "[1]; 30 min post i.v. injection", "result": "1.11 ± 0.06", "unit": "% ID/g"}, {"measurement": "Brain distribution, THAL", "setting": "[1]; [3]", "result": "0.81 ± 0.06", "unit": "% ID/g"}, {"measurement": "Brain distribution, THAL", "setting": "[1]; 60 min post i.v. injection", "result": "0.77 ± 0.10", "unit": "% ID/g"}, {"measurement": "Receptor blockade in low specific activity (LSA) studies", "setting": "α7-nAChR", "result": "nor was there evidence of receptor blockade"}, {"measurement": "α7/α4", "setting": "rat α4β2 nAChR", "result": ">22,000 (1)"}, {"measurement": "α7/5-HT3", "setting": "rat 5-HT3 receptor", "result": "18 (1)"}]}
